Experimental data: BindingDB's records for doi:10.7270/Q2HT2MQ5 (Nmmlsc, 2009)

Biological target: Cell division control protein 42 homolog (Homo sapiens, UniProt P60953)
Experiment: wild-type Cdc42 nucleotide-binding inhibitors, SAR follow-up, biochemical, bead-based multiplex flow cytometry, oxadiazole series (AID 2037)
Conditions: inactive by the depositor's call

Chain of Cell division control protein 42 homolog (P60953 whole entry): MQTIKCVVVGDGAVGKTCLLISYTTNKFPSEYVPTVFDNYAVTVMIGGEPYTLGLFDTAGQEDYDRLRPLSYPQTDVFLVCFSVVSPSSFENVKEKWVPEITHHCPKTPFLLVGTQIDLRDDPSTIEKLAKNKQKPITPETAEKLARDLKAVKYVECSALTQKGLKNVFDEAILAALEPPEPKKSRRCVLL

- Ki: 100 nM
Structure (SMILES): COc1ccc(-c2noc(CCC(=O)N3CCN(c4ccc(OC)cc4)CC3)n2)cc1 [3-[3-(4-methoxyphenyl)-1,2,4-oxadiazol-5-yl]-1-[4-(4-methoxyphenyl)piperazin-1-yl]propan-1-one]
